# Test results reported in patent US7453011B2, “Cycloalkyl substituted polyamines for cancer therapy and methods of synthesis therefor” (Progen Pharmaceuticals, Inc., priority 2001, dated 2008).
# Counter-ions that a name gives are not always drawn. Like-named read-outs stand apart in the source and are kept apart here.
# Experiments:
# [1] = system: DU145 human prostate cancer cell line; assay: MTT assay, DU145 cells; format: cell-based; details: read-out: ID50 DU145
# Description: (§1) The polyamine analogs inhibited prostate cancer cell growth in vitro., as indicated in Table 1 and FIG. 1, FIG. 2, FIG. 3, FIG. 4, and FIG. 5. Tissue cultures and the MTT assay were performed as follows. Additional protocols for in vitro assays are disclosed in International Patent Applications WO 00/66175, WO 00/66528, WO 00/66587, WO 98/17624, Valasinas et al., J. Med. Chem. 44:390-403 (2001), and U.S. Provisional Patent Application Ser. No. 60/329,982 filed Oct. 16, 2001.
# (§2) Tissue Culture. Cells were seeded into 75 cm^2 culture flasks with 15 ml of Eagle's minimal essential medium supplemented with 10% fetal calf serum and nonessential amino acids. The flasks were incubated in a humidified 95% air/5% CO2 atmosphere. The cells were grown for at least 24 h to ensure that they are in the log phase of growth and then they were treated with the polyamine analogs. Cells were harvested by treatment for 5 min with STV (saline A, 0.05% trypsin, 0.02% EDTA) at 37° C. The flasks were rapped on the lab bench, pipetted several times and aliquots of cell suspension were withdrawn and counted using a Coulter particle counter that has been standardized for counting each cell line using a hemacytometer.
# (§3) MTT Assay: Trypsinized cell suspensions were diluted to seed 80 μl suspensions containing 500 cells in each well of a 96 well Corning microtiter plate and incubated overnight at 37° C. in a humidified incubator in 5% CO2. 20 μl of appropriately diluted stock solution of each drug (i.e., polyamine analog) were added to the middle 8 columns of cell suspension in the microtiter plates. Each drug concentration was run in quadruplicate. Outer columns of the plates were used for buffer controls. Cells were incubated with the drug for 6 days at 37° C. in 5% CO2/H2O atmosphere. 25 μl of 5 mg/ml solution of 3-(4,5-dimethylthiazol-2-yl)-2,5-diphenyl tetrazolium bromide (MTT) were added to each well and incubated for 4 hours at 37° C. in 5% CO2/H2O incubator. Cells were lysed by incubating overnight with 100 μl lysis buffer (500 ml of the lysis buffer contains: 100 g lauryl sulfate (SDS), 250 ml of N,N-dimethylformamide, and 2 ml of glacial acetic acid, made up to volume with water; pH 4.8).
# (§4) The color was monitored at room temperature at 570 nm in a E-max Precision Microplate Reader (Molecular Devices Corporation, Sunnyvale, Calif.) and data was analyzed using cell survival software supplied by Molecular Devices Corporation.
# (§5) The effects of SL-11218 and SL-11231 on the growth of human prostate tumor cell lines PC-3, DU-145, DuPro and LnCap and on human breast cancer cell lines MCF-7 and MDA-MB-231 in culture were determined by an MTT assay. The growth inhibitory effects were expressed as ID50 value which is defined as the drug concentration required to inhibit 50% cell growth after 5 days of treatment. The results are shown in Table 2; the numbers are the average of the values determined in at least three separate experiments. Both compounds are effective in inhibiting human prostate tumor cell growth in culture.
# [2] = system: DuPro human prostate cancer cell line; assay: MTT assay, DuPro cells; format: cell-based
# Description: as §1, §2, §3, §4, §5
# [3] = system: PC-3 human prostate cancer cell line; assay: MTT assay, PC-3 cells; format: cell-based
# Description: as §1, §2, §3, §4, §5
# [4] = system: DU-145 human prostate tumor xenograft; assay: DU-145 human prostate tumor xenograft in nude mice; format: in vivo
# Description: (§6) Male athymic nude mice were given s.c. injections of 1×10^6 DU-145 cells on Day 0. Beginning on Day 7, mice were treated i.p q1w×4 for 3 cycles with either saline, 50 mg/kg SL-11218 or 75 mg/kg SL-11218 (pH 7.4) i.p. at 10 ml/kg dosing volume. (Cage issues in the control cage were due to a water bottle leaking and lack of food for 24 hours.) The treatment was carried out once weekly for four weeks (q1w×4) in 3 cycles with a 4 week gap between each cycle. (i.e., cycle 1, administration on days 7, 14, 21, 28; cycle 2, administration on days 49, 56, 63, 70; cycle 3, administration on days 98, 105, 112, 119). All p values were compared to vehicle treated mice.
# (§7) The effect of SL-11231 at 12.5 mg/kg for 5 consecutive days against DU-145 human prostate tumor xenograft in nude mice is shown in FIG. 8a. […] (Note that the value reported in Table 1 for SL-11231 versus DU-145 cells is for a single experiment, while the value reported in Table 2 is an average of multiple experiments.)
# [5] = system: BxPC-3 human pancreatic tumor xenograft; assay: Human pancreatic tumor xenograft in nude mice; format: in vivo; details: 10 days break
# [6] = system: MCF-7 human breast cancer cell line; assay: MTT assay, MCF-7 cells; format: cell-based; details: for IC50: Table 2, 5 days of treatment, average of at least three experiments, read-out: ID50 MCF-7
# Description: as §3, §4, §5
# [7] = system: large (~2000 mm^3) DU-145 tumor xenograft; assay: Large DU-145 tumor xenograft in nude mice; format: in vivo
# Description: (§8) In addition, SL-11218 at a dose of 75 mg/kg i.p. for q1w×4 stabilized large (˜2000 mm^3) DU-145 tumor xenograft for 2 cycles with a 4 week gap between each cycle (FIG. 11a). Male athymic nude mice were given s.c. injections of 1×10^6 DU145 cells on Day 0. Beginning on Day 10, mice were given acidified water vehicle orally at 10 ml/kg dosing volume 1× weekly for 8 weeks. On D66 mice began weekly treatment of saline versus SL-11218 i.p. After cycle 1 there was a 27% reduction in tumor volume compared to vehicle treated controls. After cycle 2 there was a significant reduction of 64% with 15% drop in body weight which recovered between cycles. (Cycle 1, administration on days 66, 73, 80, 87; cycle 2, administration on days 115, 122, 129, 136.) BW p values were compared to untreated controls. At d87, p=0.005 for SL-11218. (For saline vehicle, n=9; at d 87 n=8; at d 101, n=4; for SL-11218 n=9; d 80 n=7; d 101 n=5). FIG. 11b indicates the effect of SL-11218 on animal bodyweight (saline vehicle, n=9, at d87, n=8; at d101 n=4; for SL-11218, n=9; at d80, n=7, at d101 n=5; p=0.015 at d98 and 0.001 at d132).
# [8] = Body weight of DU-145 tumor-bearing nude mice under treatment; format: in vivo
# Description: as §6, §7, §8
# [9] = system: DuPro human prostate tumor cell line; assay: Colony forming efficiency (CFE) assay, DuPro; format: cell-based; details: FIG. 6
# [10] = system: MDA-MB-231 human breast cancer cell line; assay: MTT assay, MDA-MB-231 cells; format: cell-based; details: Table 2, 5 days of treatment, average of at least three experiments, read-out: ID50 MDA-MB-231
# Description: as §3, with “Cells were lysed by incubating overnight with 100 μl lysis buffer (500 ml of the lysis buffer contains: 100 g lauryl sulfate (SDS), 250 ml of N,N-dimethylformamide, and 2 ml of glacial acetic acid, made up to volume with water; pH 4.8).” left out
# as §4
# (§9) The effects of SL-11218 and SL-11231 on the growth of human prostate tumor cell lines PC-3, DU-145, DuPro and LnCap and on human breast cancer cell lines MCF-7 and MDA-MB-231 in culture were determined by an MTT assay. […] The results are shown in Table 2; the numbers are the average of the values determined in at least three separate experiments. […]
# [11] = system: LnCap human prostate cancer cell line; assay: MTT assay, LnCap cells; format: cell-based; details: read-out: ID50 LnCap
# Description: as §1, §2
# MTT Assay: Trypsinized cell suspensions were diluted to seed 80 μl suspensions containing 500 cells in each well of a 96 well Corning microtiter plate and incubated overnight at 37° C. in a humidified incubator in 5% CO2. […]
# as §4, §9
# [12] = system: Tsu-pr1 human prostate cancer cell line; assay: MTT assay, Tsu-pr1 cells; format: cell-based; details: Table 1, read-out: ID50 Tsu-pr1
# Description: as §1
# as §2, with “Cells were harvested by treatment for 5 min with STV (saline A, 0.05% trypsin, 0.02% EDTA) at 37° C.” left out, “hemacytometer. […]” for “hemacytometer.”
# as §4
# [13] = system: Tsu-pr1-ADR human prostate cancer cell line; assay: MTT assay, Tsu-pr1-ADR cells; format: cell-based; details: Table 1, read-out: ID50 Tsu-pr1-ADR
# Description: as §1
# as §2, with “Cells were harvested by treatment for 5 min with STV (saline A, 0.05% trypsin, 0.02% EDTA) at 37° C.” left out, “hemacytometer. […]” for “hemacytometer.”
# as §4
# [14] = multiple injection (ip) schedules; cited from earlier work
# [15] = system: L1210 leukemia or Lewis lung carcinoma; details: L1210 leukemia or Lewis lung carcinoma grafted in athymic nude mice; cited from earlier work
# [16] = Table 1, DU145, SL-11231 value from a single experiment
# [17] = Table 1, human prostate cancer cell line DuPro, read-out: ID50 DuPro
# [18] = Table 1, PC-3, read-out: ID50 PC-3
# [19] = Table 2, 5 days of treatment, average of at least three experiments
# [20] = Table 2, 5 days of treatment, average of at least three experiments, read-out: ID50 DUPRO
# [21] = Table 2, 5 days of treatment, average of at least three experiments, read-out: ID50 PC3
structure (smiles),measurement,setting,value
CCNCC1CC1CNCC1CC1CNCC1CC1CNCC (mixture of isomers) [SL-11215],IC50,[1]; [16],0.06 µM
same,IC50,[2]; [17],0.63 µM
same,IC50,[3]; [18],> 31.2 µM
CCNCC1CC1CNCCCCNCC1CC1CNCC.Cl.Cl.Cl.Cl (mixture of isomers) [SL-11218],effect on tumor growth,"[4]; 50 mg/kg i.p. q1w×4, 3 cycles",temporarily arrested tumor growth
same,effect on tumor growth,"[4]; 75 mg/kg i.p. q1w×4, 3 cycles",arrested tumor growth throughout the treatment period of 120 days
same,effect on human pancreatic tumor growth,"[5]; 50 mg/kg i.p. q1d×5, 2 cycles",effectively inhibit human pancreatic tumor growth
same,IC50,[1]; [16],0.063 µM
same,IC50,[1]; [19],0.06 µM
same,IC50,[6],4.25 µM
same,activity against MCF-7 breast cancer cells,[6]; in words,some activity
same,IC50,[2]; [17],0.26 µM
same,IC50,[2]; [20],0.26 µM
same,effect on large tumor xenograft,"[7]; 75 mg/kg i.p. q1w×4, 2 cycles",stabilized
same,reduction in tumor volume compared to vehicle treated controls,"[7]; 75 mg/kg i.p. q1w×4, after cycle 1",27%
same,reduction in tumor volume compared to vehicle treated controls,"[7]; 75 mg/kg i.p. q1w×4, after cycle 2",64%
same,bodyweight loss,"[8]; 75 mg/kg i.p. q1w×4, 3 cycles, 120 days, DU-145 xenograft",without appreciable bodyweight loss
same,drop in body weight,"[8]; 75 mg/kg i.p. q1w×4, after cycle 2, large DU-145 xenograft, recovered between cycles",15%
same,cytotoxicity by CFE assay,[9],marked cytotoxicity
same,IC50,[10],> 31.2 µM
same,IC50,[3]; [18],> 31.2 µM
same,IC50,[3]; [21],> 31.2 µM
CCNCCCCNCC1CC1CNCCCCNCC1CC1CNCCCCNCC (mixture of isomers) [SL-11231],effect on tumor growth,[4]; 12.5 mg/kg for 5 consecutive days,efficiently inhibits tumor growth
same,effect on human pancreatic tumor growth,"[5]; 12.5 mg/kg i.p. q1d×5, 2 cycles",effectively inhibit human pancreatic tumor growth
same,IC50,[1]; [16],0.08 µM
same,IC50,[1]; [19],0.12 µM
same,IC50,[6],> 31.2 µM
same,IC50,"[11]; Table 1, LnCap",0.15 µM
same,IC50,[11]; [19],0.15 µM
same,IC50,[2]; [17],0.38 µM
same,IC50,[2]; [20],0.38 µM
same,effect on animal bodyweight,"[8]; 12.5 mg/kg for 5 consecutive days, DU-145 xenograft",without appreciable effects on animal bodyweight
same,IC50,[10],> 31.2 µM
same,IC50,[3]; [18],> 31.2 µM
same,IC50,[3]; [21],> 31.2 µM
CCNCCCCNCC1CC1CNCCCCNCC (racemic) [SL-11093],IC50,[1]; [16],0.01 µM
same,IC50,"[11]; Table 1, LnCap",0.21 µM
same,IC50,[12],0.07 µM
same,IC50,[2]; [17],0.2 µM
same,IC50,[13],> 31.2 µM
same,IC50,[3]; [18],4.17 µM
CCNCCCCNCCCCNCCCCNCCCCNCC1CC1CNCCCCNCCCCNCCCCNCCCCNCC (racemic) [SL-11241],IC50,[1]; [16],0.2 µM
same,IC50,[2]; [17],0.34 µM
same,IC50,[3]; [18],0.4 µM
NCCCCNCC1CC1CNCCCCN (racemic) [SL-11245],IC50,[1]; [16],0.61 µM
same,IC50,[2]; [17],> 31.2 µM
same,IC50,[3]; [18],> 31.2 µM
CC(C)(C)NCCCCNCC1CC1CNCCCCNC(C)(C)C (racemic) [SL-11247],IC50,[1]; [16],11.2 µM
same,IC50,[2]; [17],> 31.2 µM
same,IC50,[3]; [18],> 31.2 µM
"CCNCCCCNCCCCNCCCCNCC [BE-4-4-4, ^1N,^14N-bisethylhomospermine]",maximum tolerated dose (MTD),[14],ca. 6 mg/kg
same,increase in lifespan as compared to control,[15],ca. 6 fold
"CCNCCCCNCC1CC1CNCCCCNCCCCNCC1CC1CNCCCCNCCCCNCC1CC1CNCCCCNCC (stereo not drawn) [SL-11232, 10,11-25,26-40,41-ter[(E)-1,2-cyclopropyl]-3,8,13,23,28,33,38,43,48-decaazapentacontane decahydrochloride]",IC50,[2]; [17],0.2 µM
same,IC50,[3]; [18],0.3 µM
CCNCCCCNCC1CC1CNCCCCN (stereo not drawn) [SL-11242],IC50,"[3]; Homo sapiens, Table 1, PC-3, read-out: ID50 PC-3",> 31.2 µM
